“And” between values parts separate entries of the source, which are not always exact repeats. Equal values may be shown once. Each block holds one compound with its values, some of them ahead of it.
Columns and labels:
peripheral blood [1] = tested on: peripheral blood; set-up: species or system mice; conditions: mouse, in vivo
Description: On study day 17, the animals were anesthetized with methoxyflurane (in a bell jar). When deeply anesthetized, blood was obtained by cardiac puncture and transferred for hematological analysis into tubes containing an EDTA suspension.
The following hematologic assays were conducted.
(§1) Statistical tests were performed at the α level of 0.01. Listing of the individual data and summary statistics (mean, standard error and sample size) was provided. The average body weight changes from study day 3 for study days 4-10 and 11-17 and average food consumption for study days 4-10 and 11-17 was analyzed.

bone marrow [2] = test: Bone marrow smear differential, cells/femur and myeloid:erythroid ratio, Example 1; format: in vivo, mice
Description: Prepared slides were stained and evaluated microscopically.
as §1, with “analyzed. […] Specifically, the interaction of AZT and procysteine® was evaluated.” for “analyzed.”
Microscopic analysis of the bone marrow smears was conducted by evaluating 500 cells for the differential analysis and 500 cells for the myeloid: erythroid ratio.

bone marrow [3] = test: Nucleated cells per femur (bone marrow cells before plating), Example 1; format: in vivo, mice; conditions: for Nucleated Cells/Femur: M,F,combined in turn
Description: (§2) Populations of bone marrow colony forming cells were evaluated. Bone marrow was collected and the stem cell assay conducted, as follows: one femur per mouse was cut at the distal and proximal ends. Using a syringe and 25 gauge needle, 5 mL of IMDM media was flushed through the femur into a collection tube (2.5 mL flushed into one end, then 2.5 ml into the other end). The tube was washed using Iscove's Modified Dulbecco's Media containing 20% fetal bovine serum and the cell concentration was adjusted to the desired count for the colony assay.
(§3) Terminal blood was evaluated for hematological effects, and bone marrow smears and aspirates were counted and 10^4 nucleated cells of the aspirate were cultured 14 days to assess hematopoietic progenitor cells.

[4] = tested on: bone marrow colony forming cells; test: Hematopoietic progenitor colony forming assay of bone marrow, Example 1; set-up: species or system mice; conditions: mouse, in vivo
Description: as §2
In triplicate, the marrow cells were put into a mixture of methylcellulose and plated into 35 mm diameter dishes. The dishes were incubated approximately 2 weeks (37° C., 5% CO2, 100% relative humidity) then manually scored under a microscope for myeloid, erythroid, and mixed colonies.
as §3

peripheral blood [5] = tested on: peripheral blood; set-up: species or system mice; conditions: mouse, in vivo; remark: listed apart in the source
Description: An eight week evaluation of the potential for oral Procysteine® to modulate AZT-induced hematologic toxicity in mice was conducted. As noted above, AZT-related bone marrow toxicity, and resultant bone marrow hypoplasia, limits the utility of this drug.
(§4) Animals were weighed (not fasted) on study day 59 and euthanized, and specimens were collected as described.
On study day 59, surviving mice were deeply anesthetized with methoxyflurane in a bell jar. While the mice were deeply anesthetized, blood for hematological analysis was obtained via cardiac puncture using needles/syringes coated with K3 EDTA. While deeply anesthetized, the mice were then euthanized by exsanguination followed by cervical dislocation. Then, bone marrow smears and aspirates were prepared and liver and kidneys were collected as subsequently described in this report.
The following hematology assays were conducted:
Statistical tests were performed at α≈0.01. Listings of the individual data were provided. Summary statistics by sex (mean, standard error and sample size) were provided for the responses for each group and for the differences between groups 1 and 2, between groups 3 and 5 and between groups 4 and 6. The average across weekly intervals for body weight change from study day 3 was analyzed. The average across weekly intervals for food consumption starting with the interval between days 3-4 were analyzed. The model included factors for block, sex and group effects and the group by sex interaction. the interactions with block effect were assumed negligible. Data for both sexes were included in one model to get an overall estimate of the residual standard deviation used in the statistical comparisons.
(§5) The difference between the means for groups 3 and 5 and the difference between the means for groups 4 and 6 were compared to the control delta. The significance of the two individual comparisons is designated in the summary statistics listing. Pairwise comparisons of the mean response for group 2 to group 1, group 3 to group 1, group 4 to group 1, group 5 to group 2, and group 6 to group 2 were also performed. The significance of these five comparisons was designated in the summary statistics listing. In total, the significance of seven statistical comparisons (two on the mean differences and five on the mean responses) are indicated in the summary statistics listing.

femoral bone marrow = test: Histopathology of femoral bone marrow sections, Example 2; format: in vivo, mice
Description: as §4
(§6) One femur from each mouse was removed and transversely halved. One half was preserved in 10% neutral buffered formalin, then submitted to a histology department for further preparation. The other half of the femur was used to prepare bone marrow smears. […] Prepared slides for bone sections and bone marrow smears were stained (Diff-Quik®) and the smears and sections were evaluated microscopically.

bone marrow [6] = test: Bone marrow smear differential and M:E ratio, Example 2; format: in vivo, mice
Description: as §6, §5
(§7) Statistical analysis of bone marrow data included an analysis of the results from bone marrow smears (differential count and M:E ratio), analysis of the histopathologic characterization data for bone marrow cellularity, analysis of the bone marrow cellularity on the day of necropsy, analysis of the results of the hematopoietic colony forming assays (based on 10^4 mononuclear bone marrow (cells/dish), and analysis of the number of colony forming units represented per femur (cellularity data multiplied by colony forming data).

bone marrow [7] = test: Nucleated cells/femur and colony forming cells, Example 2; format: in vivo, mice
Description: Bone marrow colony-forming cells were evaluated. During necropsy, one femur per mouse was cut at the distal and proximal ends. Using a syringe and 25 G needle, 5 ml of Iscove's Modified Dulbecco's Media (IMDM) was flushed through the femur into a collection tube (2.5 ml flushed into one end, then 2.5 ml into the other end). The tube was washed using IMDM containing 20% fetal bovine serum and the cell concentration was adjusted to the desired count for the colony assay. In triplicate, the marrow cells were put into a mixture of methylcellulose, stem cell factor, interleukin-3, granulocyte macrophage--colony stimulating factor, and erythropoietin, and plated into 35 mm diameter dishes. The dishes were incubated 10 days (37° C., 5% CO2, 100% relative humidity) then manually scored under a light microscope for myeloid (white), erythroid (red), and mixed colonies.
as §7

[8] = GSH concentrations in blood, liver and kidney by HPLC, Example 2; format: in vivo, mice
[9] = Histopathology of adrenal, skin and tail, Example 2; set-up: species or system mice; conditions: mouse, in vivo
[10] = AZT 50 mg/kg/day, M,F,combined in turn
[11] = AZT 500 mg/kg/day, M,F,combined in turn
[12] = 8 weeks, AZT 50/day, F, M in turn
[13] = 8 weeks, AZT 500/day, F, M in turn
[14] = 8 weeks, no AZT, F (N 9), M (N 10) in turn

Compound: Cc1cn([C@H]2C[C@H](N=[N+]=[N-])[C@@H](CO)O2)c(=O)[nH]c1=O [AZT]
mean corpuscular volume, mean corpuscular hemoglobin, incidence of polychromasia, anisocytosis, macrocytes and Howell-Jolly bodies (peripheral blood [1]): increases
total hemoglobin concentration, hematocrit and erythrocyte counts (peripheral blood [1]): significant (p<0.01) decreases
Bone Marrow-Miscellaneous Cells % (bone marrow [2]; [10]): 0.4% and 0.5%
Lymphocyte (bone marrow [2]; [10]): 0.047 /Femur × 10**6 and 0.046 /Femur × 10**6
Bone Marrow-Miscellaneous Cells % (bone marrow [2]; [11]): 0.2%
Lymphocyte (bone marrow [2]; [11]): 0.022 /Femur × 10**6 and 0.015 /Femur × 10**6 and 0.019 /Femur × 10**6
metarubricytes (nonproliferating) (bone marrow [2]; bone marrow smears): marked reduction
rubriblasts (bone marrow [2]; bone marrow smears): mild reduction
total count of erythroid series cells (bone marrow [2]; bone marrow smears): reduced total count
nonproliferating compartment of the myeloid series (bone marrow [2]; mouse, in vivo): reduction
proliferating compartment of the myeloid series (bone marrow [2]; mouse, in vivo): significantly increased
Nucleated Cells/Femur (bone marrow [3]; AZT 50 mg/kg/day): 11.7 ×10**6 and 9.9 ×10**6 and 10.8 ×10**6
Nucleated Cells/Femur (bone marrow [3]; AZT 500 mg/kg/day): 10.5 ×10**6 and 8.8 ×10**6 and 9.6 ×10**6
nucleated cells of bone marrow aspirates (bone marrow [3]; AZT and high-dose AZT/Procysteine, vs controls): significant reduction
total colonies and colony forming units-granulocyte/macrophage [4]: significant induction
HCT (peripheral blood [5]): significant decrease
MCV and MCH (peripheral blood [5]): Significant increases
RBC and HGB (peripheral blood [5]): Significant decreases
platelets (peripheral blood [5]): significant increases
Bizarre Mitotic Figures (number of mice) (femoral bone marrow; [12]): 0
Erythroid Hypoplasia (number of mice) (femoral bone marrow; [12]): 10 and 6
General Hypoplasia (number of mice) (femoral bone marrow; [12]): 1
Hemosiderin (number of mice) (femoral bone marrow; [12]): 0
Erythroid Hypoplasia (number of mice) (femoral bone marrow; [13]): 9 and 8
Hemosiderin (number of mice) (femoral bone marrow; [13]): 4 and 2
erythroid or general bone-marrow-hypoplasia (femoral bone marrow; both doses, both sexes): 36/39
erythroid hypoplasia (femoral bone marrow; female mice): 19/20
erythroid hypoplasia (femoral bone marrow; male mice): 14/19
erythroid cells in bone marrow smears (bone marrow [6]; male and female): significant reduction
metarubricytes (nonproliferating) and rubriblasts (bone marrow [6]; male and female): significantly reduced
total proliferating myeloid and total myeloid cells (bone marrow [6]; male and female): significantly increased
total number of colonies (bone marrow [7]; both high dose AZT groups): significant increases
Nucleated Cells/Femur (bone marrow [7]; males and females, high dose AZT ± Procysteine, vs controls): significantly decreased
Blood GSH ([8]; mouse, in vivo): significantly decreased with increasing AZT dose
epidermal melanin-like pigment of tail [9]: accumulation of epidermal melanin-like pigment

HCT (peripheral blood [5]): 39.6%
MCV (peripheral blood [5]): 51 fL
Retic (peripheral blood [5]): 1.4%
WBC (peripheral blood [5]): 2.1 10^3 /μl
Compound: O=C1N[C@H](C(=O)O)CS1 [Procysteine]
Bone Marrow-Miscellaneous Cells % (bone marrow [2]; no AZT, M,F,combined in turn): 1.0% and 1.2% and 1.1%
Lymphocyte (bone marrow [2]; no AZT, M,F,combined in turn): 0.130 /Femur × 10**6 and 0.141 /Femur × 10**6 and 0.135 /Femur × 10**6
Myeloid:Erythroid Ratio (bone marrow [2]; no AZT, M,F,combined in turn): 1.59 and 1.58
Nucleated Cells/Femur (bone marrow [3]; no AZT): 12.8 ×10**6 and 12.0 ×10**6 and 12.4 ×10**6
Bizarre Mitotic Figures (number of mice) (femoral bone marrow; [14]): 0
Erythroid Hypoplasia (number of mice) (femoral bone marrow; [14]): 0
General Hypoplasia (number of mice) (femoral bone marrow; [14]): 0
Hemosiderin (number of mice) (femoral bone marrow; [14]): 0
Normal bone marrow (number of mice) (femoral bone marrow; [14]): 9 and 10
AZT-induced bone marrow pathology / hypoplasia (femoral bone marrow; eight weeks of cotreatment): significantly ameliorated
erythroid series cells (bone marrow [6]; female mice): only a mild decrease
myeloid series cells (bone marrow [6]; female mice): no meaningful alterations
bone marrow status (bone marrow [6]; male mice): normal bone marrows
blood GSH concentrations vs AZT-only treated groups ([8]; at 0, 50, and 500 mg/kg/day AZT): higher
